Target: Vibrio cholerae MARTX toxin cysteine protease domain (CPD) (Vibrio cholerae serotype O1, UniProt Q9KS12)
Type: biochemical
Details: increasing amounts of InsP6, 2 hrs at 4° C.

Vibrio cholerae MARTX toxin cysteine protease domain (CPD), sequence (Q9KS12 3440-3650 limits assumed): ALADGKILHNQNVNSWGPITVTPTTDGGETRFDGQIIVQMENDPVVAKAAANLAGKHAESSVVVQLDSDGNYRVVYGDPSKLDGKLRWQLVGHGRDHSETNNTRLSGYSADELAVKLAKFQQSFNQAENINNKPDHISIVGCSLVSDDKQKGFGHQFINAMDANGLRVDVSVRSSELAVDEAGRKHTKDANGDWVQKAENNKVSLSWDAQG

O=P(O)(O)OC1C(OP(=O)(O)O)C(OP(=O)(O)O)C(OP(=O)(O)O)C(OP(=O)(O)O)C1OP(=O)(O)O (stereo not shown) [InsP6, inositol hexakisphosphate]
release of GFP from Ni2+-NTA agarose beads (CPD autoprocessing): stimulated the release of GFP
